Source: patent EP3922268B1, “NEW DERIVATIVES OBTAINED FROM HYALURONIC ACID AND CARNOSINE” (Fidia Farmaceutici S.p.A., priority 2020, dated 2023)

Test system: HFF1 cell line (consisting of fibroblasts derived from human skin)
Assay: MTT cell viability assay
Assay type: cell-based
Conditions: HFF1 cells, 5 hours incubation; carnosine alone 0.136 mM
Protocol: Trial design. The cell response of conjugate (1) in terms of cell viability was determined in vitro by performing the MTT assay (Mosmann T, J Immunol Methods 1983; 65:55-63) on the HFF1 cell line (consisting of fibroblasts derived from human skin). The cells were used at passages 20-23, cultured at 37°C and 5% CO2 in Dulbecco's Modified Eagle Medium (DMEM) with integrated glucose and added with FBS (1%). To conduct the MTT assay, the cells were plated in 96-well multiwell plates (7000 cells per well) in DMEM culture medium with integrated glucose and added with 1% FBS; after 48 hours they were treated with control medium, or with medium alternatively containing carnosine, conjugate (1) prepared as described in EXAMPLE 1, or complexes of conjugate (1) with Cu(II), for 5 hours of incubation at 37°C and 5% CO2. Each treatment was performed in triplicate. […] After removal of the liquid from each well and addition of DMSO (100 µl), the absorbance of the formazan salt (blue) produced by the cleavage reaction of the tetrazolium ring of MTT (yellow) by the mitochondrial enzyme succinate dehydrogenase present in the viable cells only was measured in a multiplate reader (Synergy™ 2 Multi-Mode Microplate Reader) at the wavelength of 570 nm. […]

NCCC(=O)N[C@@H](Cc1c[nH]cn1)C(=O)O [carnosine, β-alanyl-L-histidine]
increase in cell viability: did not lead to any increase in cell viability
